Reference: ChEMBL document CHEMBL4732046, “A red-light-activated sulfonamide porphycene for highly efficient photodynamic therapy against hypoxic tumor” (Eur J Med Chem, 2021)
Active and inactive are the calls of the source. The rule behind the calls is not given here.

Assays:
B16 [1] = test: Induction of apoptosis in mouse B16 cells assessed as increase in cleaved caspase 3 level at 200 to 400 nM irradiated with 640 +/- 15 nm red LED for 1 hrs measured after 24 hrs by Western blot analysis; format: functional, cell-based; conditions: dose 200-400 nM
A-375 [2] = test: (§1) Antitumor activity against human A-375 cells xenografted in BALB/c mouse assessed as tumor growth inhibition by measuring nuclear TUNEL-positive treated at high dose intratumorally once every 2 days for 2 weeks followed every dosing irradiated with 640 +/- 15 nm red LED for 4 hrs measured after 14 days treatment; format: functional, cell-based; conditions: time 14.0 day
A-375 [3] = test: as §1, with “pyknosis” for “TUNEL-positive”; format: functional, cell-based; conditions: time 14.0 day
A-375 [4] = test: Induction of apoptosis in human A-375 cells assessed as increase in Bad level at 100 to 300 nM irradiated with 640 +/- 15 nm red LED for 1 hrs measured after 24 hrs by Western blot analysis; format: functional, cell-based; conditions: dose 100-300 nM
[5] = Toxicity in C57BL/6 mouse model assessed as change in platelet count measured after 14 days; conditions: 336 h, time 14 day
[6] = Toxicity in C57BL/6 mouse model assessed as effect on liver treated intratumorally once every 2 days for 2 weeks followed every dosing irradiated with 640 +/- 15 nm red LED for 4 hrs measured upto 28 days by H and E staining dependent light microscopy based histopathological analysis; format: tissue-based; conditions: in vivo, other, time <=28 day
A-375 [7] = test: Antiproliferative activity against human A-375 cells assessed as inhibition of cell proliferation irradiated with 640 +/- 15 nm red LED for 4 hrs in presence of 30 uM L-histidine measured after 24 hrs under hypoxic condition by MTT assay; format: functional, cell-based
B16 [8] = test: Induction of apoptosis in mouse B16 cells assessed as apoptotic cells at 400 nM irradiated with 640 +/- 15 nm red LED for 1 hrs after 24 hrs by Annexin V-FITC/propidium iodide staining based flow cytometric analysis relative to control; format: functional, cell-based
B16 [9] = test: Induction of morphological changes in mouse B16 cells assessed as chromatin condensation at 200 to 400 nM incubated for 24 hrs by Hoechst 33258 staining based assay; format: functional, cell-based; conditions: dose 200-400 nM
[10] = Drug uptake in human A-375 cells lysosome after 24 hrs by Lyso-Tracker Red dye based confocal microscopic method; format: ADME, subcellular; conditions: a-375, 24 h
B16 [11] = test: Antiproliferative activity against mouse B16 cells assessed as inhibition of cell proliferation irradiated with 640 +/- 15 nm red LED for 4 hrs in presence of 30 uM D-mannitol measured after 24 hrs under hypoxic condition by MTT assay; format: functional, cell-based
[12] = Toxicity in C57BL/6 mouse assessed as effect on blood urea nitrogen level measured upto 14 days; conditions: in vivo, 336 h, time <=14 day
[13] = Toxicity in C57BL/6 mouse xenografted with mouse B16 cells assessed as body weight at high dose intratumorally once every 2 days for 2 weeks followed every dosing irradiated with 640 +/- 15 nm red LED for 4 hrs measured after 14 days treatment; conditions: in vivo, other, 336 h, time 14 day
A-375 [14] = test: Induction of apoptosis in human A-375 cells assessed as increase in cytochrome c level at 100 to 300 nM irradiated with 640 +/- 15 nm red LED for 1 hrs measured after 24 hrs by Western blot analysis; format: functional, cell-based; conditions: dose 100-300 nM
A-375 [15] = test: Antiproliferative activity against human A-375 cells assessed as inhibition of cell proliferation irradiated with 640 +/- 15 nm red LED for 4 hrs in presence of 30 uM L-histidine measured after 24 hrs by MTT assay; format: functional, cell-based

For `CC(C)(C)C1=Cc2nc1ccc1[nH]c(cc1S(=O)(=O)NCCOCCO)c1nc(ccc3[nH]c2cc3C(C)(C)C)C(C(C)(C)C)=C1`, the Activity (B16 [1]) was “Active”, the Activity (A-375 [2]) was “Active” and the Activity (A-375 [3]) was “Active”. The Activity (A-375 [4]) was “Active”, the Activity [5] was “Non-Toxic” and the Activity [6] was “Non-Toxic”. The Activity (A-375 [7]) was “Active”, the Activity (B16 [8]) was “Active” and the Activity (B16 [9]) was “Active”. For the same molecule, the Drug uptake [10] was “Active”, the Activity (B16 [11]) was “inactive” and the Activity [12] was “Non-Toxic”. For the same molecule, the Activity [13] was “Non-Toxic”, the Activity (A-375 [14]) was “Active” and the Activity (A-375 [15]) was “Active”.
